From patent US4251524A (priority 1976, dated 1981)

Each molecule was assayed on Klebsiella pneumoniae; Enterobacter aerogenes sp.; Providencia; Serratia marcescens; E. coli BE; Salmonella sp.; Shigella sp.; Proteus, indole-negative and …. Conditions: 100 μg/ml, Muller-Hinton nutrient broth with 0.1% glucose, 1×10^5 to 2×10^5 bacteria per ml, 24 hours; all listed cultures.
Format: cell-based
In the case of CC1(C)S[C@@H]2[C@H](NC(=O)[C@H](NC(=O)N3CCN(N=Cc4ccc(Cl)cc4)C3=O)c3ccccc3)C(=O)N2[C@H]1C(=O)O [Example 2.3, sodium 6-{D-α-[(2-oxo-3-{4-chloro}-benzalimino-imidazolidin-1-yl)-carbonylamino]-phenylacetamido}-penicillanate], the “freedom from turbidity of bacterial cultures (indicates action)” value (“freedom from turbidity” below) is reported as “free from turbidity”.
CC1(C)S[C@@H]2[C@H](NC(=O)[C@H](NC(=O)N3CCN(N=Cc4ccc(Cl)cc4)C3=O)C3=CCC=CC3)C(=O)N2[C@H]1C(=O)O [Example 2.4, sodium 6-{D-α-[(2-oxo-3-{4-chloro}-benzalimino-imidazolidin-1-yl)-carbonylamino]-cyclohex-1,4-dien-1-yl-acetamido}-penicillanate] was tested, and the “freedom from turbidity” value was “free from turbidity”.
In the case of COC1(NC(=O)[C@H](NC(=O)N2CCN(N=Cc3ccco3)C2=O)c2ccccc2)C(=O)N2C(C(=O)O)=C(COC(C)=O)CS[C@@H]21 (some centres unmarked) [Example 36.5], the “freedom from turbidity” value is reported as “free from turbidity”.
With CC=CC=NN1CCN(C(=O)N[C@@H](C(=O)N[C@]2(OC)C(=O)N3C(C(=O)O)=C(COC(C)=O)CS[C@@H]32)c2ccccc2)C1=O [Example 36, 7-methoxy-7-{D-α-[(2-oxo-3-but-2-enylideneamino-imidazolidin-1-yl)-carbonylamino]-phenylacetamido}-3-acetoxymethyl-ceph-3-em-4-carboxylic acid] the “freedom from turbidity” value was “free from turbidity”.
CC1(C)S[C@@H]2[C@H](NC(=O)[C@H](NC(=O)N3CCN(N=Cc4ccccc4)C3=O)c3ccccc3)C(=O)N2[C@H]1C(=O)O [Example 1.3, sodium 6-{D-α-[(2-oxo-3-benzalimino-imidazolidin-1yl)-carbonylamino]phenylacetamido}-penicillanate] was tested, and the “freedom from turbidity” value was “free from turbidity”.
